{
  "source": "patent US20160228506A1",
  "about": "“Compositions and Formulations for Prevention and Reduction of Tumorigenesis, Cancer Cell Proliferation and Invasion, and Methods of Production and Use Thereof in Cancer Treatment” (PRONUTRIA, INC., priority 2013, published 2016)",
  "key": {"[1]": {"assay": "Intact half-life during simulated gastric fluid (SGF) digestion", "conditions": "SGF pH 1.5, pepsin:polypeptide 1:20 w/w, 37° C.; intact protein", "experimental": "In this experiment the nutritive polypeptide was exposed to a series of proteases that are active in the stomach (pepsin) and intestine (trypsin and chymotrypsin), and the presence of intact protein was measured over time. Specifically, the nutritive polypeptide was first treated at a concentration of 2 g/L with simulated gastric fluid (SGF) (0.03 M NaCl, titrated with HCl to pH 1.5 with a final pepsin:polypeptide ratio of 1:20 w/w) at 37° C. Time points were sampled from the reaction and quenched by addition of 0.2 M Na2CO3. […] Time points were sampled from the reaction and quenched by addition of Trypsin/Chymotrypsin Inhibitor (Sigma) solution until 240 min.\nTime point samples were analyzed for intact protein by chip electrophoresis, polyacrylamide gel electrophoresis, or western blot. For chip electrophoresis (Labchip GX II), samples were analyzed using a HT Low MW Protein Express LabChip® Kit (following the manufacturer's protocol). A protein ladder was loaded every 12 samples for molecular weight determination (kDa) and quantification. For polyacrylamide gel electrophoresis, samples (1 μg) were separated on a NuPAGE® Novex® Bis-Tris Precast gel (Life Technologies) according to the manufacturer's protocol. The gel was stained using SimplyBlue™ SafeStain (Invitrogen) and imaged using a Chemidoc XRS+ (BioRad) or transferred onto nitrocellulose membranes using the iBlot® Dry Blotting System (Life Technologies) and iBlot® Western Detection Kit (Life Technologies) according to the manufacturer's protocol. Proteins were detected by blotting with Anti-His [C-term]-HRP antibody diluted 3:5000 in Blok™-PO Blocking Buffer using the SNAP I.d.® Protein Detection System (Millipore) according to the manufacturer's protocol. Blots were treated with Luminata Classico Western HRP Substrate (Millipore) according to the manufacturer's protocol and imaged using chemiluminescent detection on the Molecular Imager® Gel Doc™ XR+ System (Bio-Rad). Quantification of intact protein was determined by densitometry using ImageLab (BioRad). For all analysis methods the relative concentration of the polypeptide at each time point (if detected) was plotted overtime and fit to an exponential curve to calculate the intact half-life.\nSpecifically, the t=0 (enzyme-free control) and t=2 min samples from the SGF digest were analyzed for intact protein as described by chip electrophoresis, SDS-PAGE, western blot, and/or LC-MS/MS. Relative quantities of polypeptides at each time point were determined and the percentage of intact protein remaining at t=2 was determined. Intact half-life values determined using this method are reported as greater or less than 2 min to indicate more or less than 50% of the protein remained intact at t=2 min, respectively."}, "[2]": {"assay": "SGF digest of 168 nutritive polypeptide library, intact protein by LC-MS/MS", "format": "in vitro ADME", "conditions": "168 nutritive polypeptide library SGF digest, LC-MS/MS spectral counts", "method": "The in vitro intact half-life of multiple polypeptides in a complex mixture was determined using the simulated gastric in vitro digestion described above. Briefly, the 168 nutritive polypeptide library was generated as described herein by cloning, transforming, and expressing a gene library encoding 168 proteins as a single mixture. The recombinantly expressed proteins were purified from host cell proteins by IMAC purification as described herein.\nThe 168 Protein Library was treated with SGF as described above and the t=0 and t=10 min samples were analyzed for intact protein by LC-MS/MS. To begin, 10 μg of sample was loaded onto a 10% SDS-PAGE gel (Invitrogen) and run approximately 5 cm into the gel. The gel was excised into ten fractions from 100 kD to the dye front and the gel slices were processed by washing with 25 mM ammonium bicarbonate, followed by acetonitrile. Gel fractions were then reduced with 10 mM dithiothreitol at 60° C., followed by alkylation with 50 mM iodoacetamide at room temperature. […] The samples were then analyzed by nano LC/MS/MS using an EasynLC 1000 HPLC system interfaced to a ThermoFisher Q Exactive. […] A full list of detected proteins and their spectral counts (SpC) was generated and reported as a function of each collected gel fraction. […]"}, "Human transglutaminase": {"target": "T1, Human transglutaminase (Homo sapiens, UniProt Q08188)", "T1 sequence (Q08188 1-693)": "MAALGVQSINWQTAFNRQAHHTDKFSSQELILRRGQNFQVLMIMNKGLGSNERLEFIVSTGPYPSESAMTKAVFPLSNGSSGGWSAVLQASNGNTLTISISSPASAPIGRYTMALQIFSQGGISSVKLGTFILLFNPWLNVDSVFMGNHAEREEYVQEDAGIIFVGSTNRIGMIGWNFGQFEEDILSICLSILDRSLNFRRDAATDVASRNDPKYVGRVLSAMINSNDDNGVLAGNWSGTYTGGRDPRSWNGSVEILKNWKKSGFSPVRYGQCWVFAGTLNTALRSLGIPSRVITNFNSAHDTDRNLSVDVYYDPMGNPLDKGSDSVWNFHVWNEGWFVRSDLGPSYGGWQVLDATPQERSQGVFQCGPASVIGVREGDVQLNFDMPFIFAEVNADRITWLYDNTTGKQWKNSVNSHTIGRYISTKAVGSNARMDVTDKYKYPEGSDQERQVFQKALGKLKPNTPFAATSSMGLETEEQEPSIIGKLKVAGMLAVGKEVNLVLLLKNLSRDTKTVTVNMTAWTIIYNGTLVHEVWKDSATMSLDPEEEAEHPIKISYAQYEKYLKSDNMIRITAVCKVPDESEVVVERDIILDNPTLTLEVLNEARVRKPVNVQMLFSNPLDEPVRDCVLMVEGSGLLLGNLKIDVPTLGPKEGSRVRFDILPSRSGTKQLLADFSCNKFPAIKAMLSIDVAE", "conditions": "read-out: Kd for calcium; cited from earlier work"}, "[3]": {"assay": "Thermostability, temperature of aggregation (ProteoStat Thermal Shift)", "format": "physicochemical", "conditions": "Table E31D; heated 25° C. to 95° C.", "method": "The thermostability of proteins in a buffer cocktail of Citric Acid and Dibasic Sodium Phosphate over a pH range of 2.8 to 7.1 (preparation described above in Table E31B) was determined using the ProteoStat® Thermal Shift Stability Kit (Enzo Life Sciences) according to the manufacturer's standard protocol. Briefly, protein solutions (˜10 mg/ml) containing 1× ProteoStat TS Detection Reagent were heated from 25° C. to 95° C. at a rate of 0.5° C. per 30 sec using a real-time PCR (rtPCR) thermocycler (BioRad) equipped with a plate reader (SynergyMx, Biotek) while monitoring the fluorescence with a Texas Red filter."}, "male Zucker fatty rats": {"test_system": "male Zucker fatty rats", "assay": "OGTT in Zucker fatty rats: SEQID-00105, alogliptin and combination, blood glucose", "format": "in vivo, rat", "conditions": "OGTT glucose 2 g/kg", "method": "In another experiment, an OGTT was performed in 24, fasted, male Zucker fatty rats with indwelling jugular vein catheters (JVC) to assess the acute effects of nutritive protein dosing on glycemic control as well as insulin and GLP-1 levels. The capacity of SEQID-00105 to improve glucose control was tested by comparing the blood glucose excursion of SEQID-00105 to alogliptin to SEQID-00105+alogliptin to vehicle in the context of an oral glucose tolerance test. All rodents were approximately 10-11 weeks old, weighed average of approximately 430 g and acclimated for 4-5 days prior to testing. Prior to treatment, all rats were fasted overnight for fourteen hours. […] N=6 rats per treatment group. The error bars shown are the standard errors of the mean. Each group was compared post hoc on GraphPad Prism 6, two-way ANOVA, Dunnett's multiple comparisons test first comparing within each group to the fasting glucose concentration, followed by a comparison of each time point to vehicle. […] The integrated area under curve (AUC) was calculated on Microsoft Excel using the Linear-Log Trapezoidal Method and two-way ANOVA and Dunnett's multiple comparisons tests was conducted on GraphPad Prism 6.03."}, "burn injury": {"test_system": "burn injury", "conditions": "0.35 g/kg supplementation, cited from earlier work"}, "[4]": {"test_system": "serotonin (5-HT) synthesis", "conditions": "oral intake of free Tryptophan; cited from earlier work"}, "[5]": {"test_system": "ribosomal protein S6 (rps6)", "assay": "AlphaScreen SureFire rps6 phosphorylation in primary rat skeletal muscle cells", "format": "cell-based", "conditions": "primary RSkMC, different Leucine concentrations", "experimental": "Primary Rat Skeletal Muscle Cell (RSKMC) culture. RSKMC were isolated using protocol described herein and cryopreserved in liquid nitrogen. The cells were also maintained in RSKMC medium (Cell Applications) in T75 tissue flask in a 37° C., 5% CO2 tissue culture incubator (Model 3110, Thermo Fisher Scientific). The cells were split every three day when they reached ˜90% confluency. RSKMC cells were cultured in RSKMC medium in T75 tissue flask to 100% confluency. The culture medium was aspirated from the culture flask and rinsed once with 10 ml of DPBS, and then 1.5 ml of 0.25% trypsin/EDTA was added to the cells. After the cells were detached from the flask, 10 ml of culture medium were added. The medium was pipetted up and down with a 10 ml pipet to detach the cells from the flask. The cells were then seeded into clear bottom 96-well tissue culture plates at a density of 50,000 cells per well. Following overnight culture in a 37° C., 5% CO2 incubator, the cells were starved over a period of 4 hours with starvation DME/F12 medium without FBS and leucine in a 37° C., 5% CO2 tissue culture incubator, then starved for another hour incubation with Hank's Buffered Salt Solution (HBSS). The cells were stimulated with different concentrations of leucine in starvation medium for 15 and 30 minutes. […]"}, "healthy subjects": {"test_system": "healthy subjects", "conditions": "oral supplementation, vs control; cited from earlier work"}},
  "data": [
    {"molecule": "SEQID-00143: nutritive polypeptide (LYLEEVSKNLVEINPLKLEVKAKPWFVYTPMHGVGFDIFSTIVKKTLCLVEGK; listed as Saccharomyces cerevisiae)", "values": [
      {"measurement": "SGF Half-life (t½)", "setting": "[1]", "result": 18, "unit": "s"}
    ]},
    {"molecule": "SEQID-00615: protein of the 168 nutritive polypeptide library (MAGIIHKIEETLHMGGGRKEEEEKRKGEGQGHGGYKGEGQGHGGYKGEGQG; listed as Vitis vinifera)", "values": [
      {"measurement": "% Intact Protein at 10 min", "setting": "[2]", "result": 85.7, "unit": "%"}
    ]},
    {"molecule": "[Ca+2]", "note": "[calcium, calcium (Ca2+)]", "values": [
      {"measurement": "Kd", "setting": "Human transglutaminase", "result": "0.3 to 3", "unit": "µM"}
    ]},
    {"molecule": "SEQID-00237: nutritive polypeptide (EEDKVNTLTKAKTKLEQQVDDLEGSLEQEKKLRMDLERAKRKLEGDLKLA; listed as Bos taurus)", "values": [
      {"measurement": "SGF Half-life (t½)", "setting": "[1]", "result": 36, "unit": "s"},
      {"measurement": "Tagg (pH 7.1)", "setting": "[3]", "result": 45}
    ]},
    {"molecule": "Cn1c(=O)cc(N2CCC[C@@H](N)C2)n(Cc2ccccc2C#N)c1=O", "note": "[Alogliptin]", "values": [
      {"measurement": "blood glucose compared to vehicle", "setting": "male Zucker fatty rats; at 30 minutes following glucose challenge", "result": "significantly lower blood glucose than vehicle"},
      {"measurement": "blood glucose compared to vehicle", "setting": "male Zucker fatty rats; at 60 minutes following glucose challenge", "result": "significantly lower than vehicle"},
      {"measurement": "glucose AUC compared to vehicle", "setting": "male Zucker fatty rats; between time 0 and 120 minutes, P=0.0051", "result": "significantly less than vehicle"},
      {"measurement": "glucose AUC compared to vehicle", "setting": "male Zucker fatty rats; between time 0 and 240 minutes, P=0.0054", "result": "significantly less than vehicle"}
    ]},
    {"molecule": "NC(=O)CC[C@H](N)C(=O)O", "note": "[Glutamine]", "values": [
      {"measurement": "reduction in hospital stay", "setting": "burn injury; 12-day burn injury study", "result": 6, "unit": "days"},
      {"measurement": "decrease in Lactulose/mannitol ratio", "setting": "burn injury; after 3 days, vs 5.5× decrease", "result": 8.8, "unit": "×"}
    ]},
    {"molecule": "N[C@@H](Cc1c[nH]c2ccccc12)C(=O)O", "note": "[Tryptophan]", "values": [
      {"measurement": "increase of 5-HT production", "setting": "[4]", "result": 2, "unit": "fold"}
    ]},
    {"molecule": "SEQID-00215: nutritive polypeptide (KKLLKDVEVLSQRLEEKALAYDKLEKTKTRLQQELDDLLVDLDHQRQIVSNLEKK; listed as Bos taurus)", "values": [
      {"measurement": "SGF Half-life (t½)", "setting": "[1]", "result": 120, "unit": "s"}
    ]},
    {"molecule": "CC(C)C[C@H](N)C(=O)O", "note": "[leucine]", "values": [
      {"measurement": "phosphorylation of rps6", "setting": "[5]", "result": "stimulates phorphorylation of rps6 in primary RSkMC in a dose-dependent manner"}
    ]},
    {"molecule": "SEQID-00212: nutritive polypeptide (LEEAKKKLLKDVEVLSQRLEEKALAYDKLEKTKTRLQQELDDLLVDLDHQ; listed as Bos taurus)", "values": [
      {"measurement": "SGF Half-life (t½)", "setting": "[1]", "result": 18, "unit": "s"}
    ]},
    {"molecule": "N=C(N)NCCC[C@H](N)C(=O)O", "note": "[arginine, Arginine]", "values": [
      {"measurement": "increase in collagen deposition at wound sites", "setting": "healthy subjects", "result": 2.4, "unit": "×"}
    ]},
    {"molecule": "SEQID-00218: nutritive polypeptide (GTIENLEEAKKKLLKDVEVLSQRLEEKALAYDKLEKTKTRLQQELDDLLVDLDHQ; listed as Bos taurus)", "values": [
      {"measurement": "SGF Half-life (t½)", "setting": "[1]", "result": 360, "unit": "s"}
    ]}
  ]
}
